Assay results published in patent publication US8246944B2, “Immunotherapeutic agent for the combined treatment of tuberculosis in association with other drugs” (Archivel Farma, S.L., priority 2003, dated 2012).

Columns and labels:
[1] = system: virulent strain of Mycobacterium tuberculosis; assay: […]; bacillary concentration in left lung and spleen; format: in vivo, BALB/c mice; settings: Control: isoniazid only 25 mg/kg per day, 5 days per week, 6 weeks (weeks 9-15); killed week 15
[2] = system: virulent strain of Mycobacterium tuberculosis; assay: as above; format: in vivo, C57BL/6 mice; settings: Control: isoniazid alone 25 mg/kg per day, 5 days per week, weeks 9-17

`NNC(=O)c1ccncc1` [isoniazid] was tested, and the “Bacillary concentration, Lung” value [1] was 7.5 ± 2.89 UFC/mL, the “Bacillary concentration, Spleen” value [1] was 0.75 ± 0.33 UFC/mL and the “Bacillary concentration, lungs, Week 15” value ([2]; sacrificed week 15) was 2.34 ± 0.24 log10 UFC/mL. The “Bacillary concentration, spleen, Week 15” value ([2]; sacrificed week 15) was 1.47 ± 0.44 log10 UFC/mL, the “Bacillary concentration, lungs, Week 28” value ([2]; sacrificed week 28) was 3.86 ± 0.41 log10 UFC/mL and the “Bacillary concentration, spleen, Week 28” value ([2]; sacrificed week 28) was 3.84 ± 0.48 log10 UFC/mL.
